According to US20210045385A1, “PYRIDAZINONE-SUBSTITUTED KETOXIMES AS HERBICIDES” (FMC Corporation, priority 2018, published 2021):

Tests used:
Assay type in all cases: in vivo
[1] = test system: wheat (Triticum aestivum); assay: Test A postemergence, visual plant response rating; conditions: for Wheat plant response rating (0 to 100 scale): 500 g ai/ha, postemergence, 0 is no effect, 100 is complete control; for Wheat plant response rating: Postemergence, 125 g ai/ha, 0 to 100 scale (0 no effect, 100 complete control)
Summary of the method: (§1)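 Formulated in a non-phytotoxic solvent mixture including surfactant, each test chemical was sprayed onto the soil surface after sowing, or onto seedlings 2 to 10 cm high. Roughly 10 days later, plants were compared with untreated controls and rated for injury from 0 (no effect) to 100 (complete control).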

[2] = test system: foxtail, giant (giant foxtail, Setaria faberii); assay: Test A postemergence, visual plant response rating; conditions: for Foxtail, Giant plant response rating (0 to 100 scale): 500 g ai/ha, postemergence, 0 is no effect, 100 is complete control; for Foxtail, Giant plant response rating: Postemergence, 125 g ai/ha, 0 to 100 scale (0 no effect, 100 complete control)
Summary of the method: as §1

[3] = test system: Italian ryegrass (Lolium multiflorum); assay: Test A postemergence, visual plant response rating; conditions: for Ryegrass, Italian plant response rating (0 to 100 scale): 500 g ai/ha, postemergence, 0 is no effect, 100 is complete control; for Ryegrass, Italian plant response rating: Postemergence, 125 g ai/ha, 0 to 100 scale (0 no effect, 100 complete control)
Summary of the method: as §1

[4] = test system: pigweed (Amaranthus retroflexus); assay: Test A postemergence, visual plant response rating; conditions: for Pigweed plant response rating (0 to 100 scale): 500 g ai/ha, postemergence, 0 is no effect, 100 is complete control; for Pigweed plant response rating: Postemergence, 125 g ai/ha, 0 to 100 scale (0 no effect, 100 complete control)
Summary of the method: as §1

[5] = test system: blackgrass (Alopecurus myosuroides); assay: Test A postemergence, visual plant response rating; conditions: for Blackgrass plant response rating (0 to 100 scale): 500 g ai/ha, postemergence, 0 is no effect, 100 is complete control; for Blackgrass plant response rating: Postemergence, 125 g ai/ha, 0 to 100 scale (0 no effect, 100 complete control)
Summary of the method: as §1

[6] = test system: barnyardgrass (Echinochloa crus-galli); assay: Test A postemergence, visual plant response rating; conditions: for Barnyardgrass plant response rating (0 to 100 scale): 500 g ai/ha, postemergence, 0 is no effect, 100 is complete control; for Barnyardgrass plant response rating: Postemergence, 125 g ai/ha, 0 to 100 scale (0 no effect, 100 complete control)
Summary of the method: as §1

[7] = test system: ragweed (common ragweed, Ambrosia elatior); assay: Test A postemergence, visual plant response rating; conditions: for Ragweed plant response rating (0 to 100 scale): 500 g ai/ha, postemergence, 0 is no effect, 100 is complete control; for Ragweed plant response rating: Postemergence, 125 g ai/ha, 0 to 100 scale (0 no effect, 100 complete control)
Summary of the method: as §1

corn (Zea mays) = assay: Test A postemergence, visual plant response rating; conditions: for Corn plant response rating (0 to 100 scale): 500 g ai/ha, postemergence, 0 is no effect, 100 is complete control; for Corn plant response rating: Postemergence, 125 g ai/ha, 0 to 100 scale (0 no effect, 100 complete control)
Summary of the method: as §1

kochia (Kochia scoparia) [8] = assay: Test A postemergence, visual plant response rating; conditions: for Kochia plant response rating (0 to 100 scale): 500 g ai/ha, postemergence, 0 is no effect, 100 is complete control; for Kochia plant response rating: Postemergence, 125 g ai/ha, 0 to 100 scale (0 no effect, 100 complete control)
Summary of the method: as §1

[9] = test system: galium (catchweed bedstraw, Galium aparine); assay: Test A postemergence, visual plant response rating; conditions: for Galium plant response rating (0 to 100 scale): 500 g ai/ha, postemergence, 0 is no effect, 100 is complete control; for Galium plant response rating: Postemergence, 125 g ai/ha, 0 to 100 scale (0 no effect, 100 complete control)
Summary of the method: as §1

[10] = test system: foxtail, giant (giant foxtail, Setaria faberii); assay: Test A preemergence, visual plant response rating; conditions: for Foxtail, Giant plant response rating: 125 g ai/ha, preemergence, 0 to 100 scale, 0 no effect, 100 complete control; for Foxtail, Giant plant response rating (0 to 100 scale): 500 g ai/ha Preemergence, approx. 10 days
Summary of the method: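 Compared with untreated controls, treated plants received a visual injury score on a 0–100 scale around 10 days after application. The compound, in a non-phytotoxic solvent with surfactant, was given as a preemergence soil spray or postemergence at the one- to two-leaf stage.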

[11] = test system: Italian ryegrass (Lolium multiflorum); assay: Test A preemergence, visual plant response rating; conditions: for Ryegrass, Italian plant response rating: 125 g ai/ha, preemergence, 0 to 100 scale, 0 no effect, 100 complete control; for Ryegrass, Italian plant response rating (0 to 100 scale): 500 g ai/ha Preemergence, approx. 10 days
Summary of the method: as §1

[12] = test system: pigweed (Amaranthus retroflexus); assay: Test A preemergence, visual plant response rating; conditions: for Pigweed plant response rating: 125 g ai/ha, preemergence, 0 to 100 scale, 0 no effect, 100 complete control; for Pigweed plant response rating (0 to 100 scale): 500 g ai/ha Preemergence, approx. 10 days
Summary of the method: as §1

[13] = test system: barnyardgrass (Echinochloa crus-galli); assay: Test A preemergence, visual plant response rating; conditions: for Barnyardgrass plant response rating: 125 g ai/ha, preemergence, 0 to 100 scale, 0 no effect, 100 complete control; for Barnyardgrass plant response rating (0 to 100 scale): 500 g ai/ha Preemergence, approx. 10 days
Summary of the method: as §1

[14] = test system: ragweed (common ragweed, Ambrosia elatior); assay: Test A preemergence, visual plant response rating; conditions: for Ragweed plant response rating: 125 g ai/ha, preemergence, 0 to 100 scale, 0 no effect, 100 complete control; for Ragweed plant response rating (0 to 100 scale): 500 g ai/ha Preemergence, approx. 10 days
Summary of the method: as §1

kochia (Kochia scoparia) [15] = assay: Test A preemergence, visual plant response rating; conditions: for Kochia plant response rating: 125 g ai/ha, preemergence, 0 to 100 scale, 0 no effect, 100 complete control; for Kochia plant response rating (0 to 100 scale): 500 g ai/ha Preemergence, approx. 10 days
Summary of the method: as §1

[16] = test system: sedge, umbrella (small-flower umbrella sedge, Cyperus difformis); assay: Test B flooded paddy test, visual plant response rating; conditions: 250 g ai/ha, Flood, applied to paddy water, 2-leaf stage, evaluated after 13 to 15 days
Summary of the method: (§2)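 Test pots are flooded 3 cm above the soil at treatment, and the test substance is introduced into this standing water. After keeping the flood level and growing plants, treated at the 2-leaf stage, for 13 to 15 days under glass, injury is assessed visually versus controls.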

[17] = test system: barnyardgrass (Echinochloa crus-galli); assay: as above; conditions: 250 g ai/ha, Flood, applied to paddy water, 2-leaf stage, evaluated after 13 to 15 days
Summary of the method: as §2

rice (Oryza sativa) = assay: as above; conditions: 250 g ai/ha, Flood, applied to paddy water, 2-leaf stage, evaluated after 13 to 15 days
Summary of the method: as §2

[18] = test system: ducksalad (Heteranhera limosa); assay: as above; conditions: 250 g ai/ha, Flood, applied to paddy water, 2-leaf stage, evaluated after 13 to 15 days
Summary of the method: as §2

Row | SMILES | Wheat plant response rating (0 to 100 scale) [1] | Wheat plant response rating [1] | Foxtail, Giant plant response rating (0 to 100 scale) [2] | Foxtail, Giant plant response rating [2] | Ryegrass, Italian plant response rating (0 to 100 scale) [3] | Ryegrass, Italian plant response rating [3] | Pigweed plant response rating (0 to 100 scale) [4] | Pigweed plant response rating [4] | Blackgrass plant response rating (0 to 100 scale) [5] | Blackgrass plant response rating [5] | Barnyardgrass plant response rating (0 to 100 scale) [6] | Barnyardgrass plant response rating [6] | Ragweed plant response rating (0 to 100 scale) [7] | Ragweed plant response rating [7] | Corn plant response rating (0 to 100 scale) (corn (Zea mays)) | Corn plant response rating (corn (Zea mays)) | Kochia plant response rating (0 to 100 scale) (kochia (Kochia scoparia) [8]) | Kochia plant response rating (kochia (Kochia scoparia) [8]) | Galium plant response rating (0 to 100 scale) [9] | Galium plant response rating [9] | also measured
1 | CON=C(c1c(O)c(C)nn(C)c1=O)c1cccc2ccoc12 [Compound 61] | 40 | 30 | 20 | 0 | 70 | 10 | 80 | 50 | 20 | 10 | 20 | 0 | 30 | 10 | 0 | 0 | 50 | 30 | 80 | 60 | Foxtail, Giant plant response rating [10]: 0; Foxtail, Giant plant response rating (0 to 100 scale) [10]: 10; Ryegrass, Italian plant response rating [11]: 30; Ryegrass, Italian plant response rating (0 to 100 scale) [11]: 80; Pigweed plant response rating [12]: 0; Pigweed plant response rating (0 to 100 scale) [12]: 0; Barnyardgrass plant response rating [13]: 0; Barnyardgrass plant response rating (0 to 100 scale) [13]: 0; Ragweed plant response rating [14]: 0; Ragweed plant response rating (0 to 100 scale) [14]: 70; Kochia plant response rating (kochia (Kochia scoparia) [15]): 0; Kochia plant response rating (0 to 100 scale) (kochia (Kochia scoparia) [15]): 0; Plant response rating, Sedge, Umbrella (0 to 100 scale, 0 is no effect, 100 is complete control) [16]: 0; Plant response rating, Barnyardgrass (0 to 100 scale, 0 is no effect, 100 is complete control) [17]: 0; Plant response rating, Rice (0 to 100 scale, 0 is no effect, 100 is complete control) (rice (Oryza sativa)): 0; Plant response rating, Ducksalad (0 to 100 scale, 0 is no effect, 100 is complete control) [18]: 0
2 | CO/N=C(/c1ccccc1F)c1c(O)c(C)nn(C)c1=O [Compound 62] | 0 | 0 | 10 | 0 | 20 | 0 | 30 | 10 | 10 | 10 | 0 | 0 | 40 | 20 | 0 | 0 | 20 | 0 | 70 | 20 | Foxtail, Giant plant response rating [10]: 0; Foxtail, Giant plant response rating (0 to 100 scale) [10]: 0; Ryegrass, Italian plant response rating [11]: 10; Ryegrass, Italian plant response rating (0 to 100 scale) [11]: 40; Pigweed plant response rating [12]: 0; Pigweed plant response rating (0 to 100 scale) [12]: 0; Barnyardgrass plant response rating [13]: 0; Barnyardgrass plant response rating (0 to 100 scale) [13]: 0; Ragweed plant response rating [14]: 0; Ragweed plant response rating (0 to 100 scale) [14]: 30; Kochia plant response rating (kochia (Kochia scoparia) [15]): 0; Kochia plant response rating (0 to 100 scale) (kochia (Kochia scoparia) [15]): 0; Plant response rating, Sedge, Umbrella (0 to 100 scale, 0 is no effect, 100 is complete control) [16]: 0; Plant response rating, Barnyardgrass (0 to 100 scale, 0 is no effect, 100 is complete control) [17]: 0; Plant response rating, Rice (0 to 100 scale, 0 is no effect, 100 is complete control) (rice (Oryza sativa)): 0; Plant response rating, Ducksalad (0 to 100 scale, 0 is no effect, 100 is complete control) [18]: 0
3 | CON=C(c1cccc(F)c1)c1c(O)c(C)nn(C)c1=O [Compound 64] | 0 | 0 | 10 | 0 | 70 | 50 | 40 | 20 | 20 | 0 | 20 | 20 | 50 | 20 | 0 | 0 | 60 | 20 | 80 | 70 | Foxtail, Giant plant response rating [10]: 0; Foxtail, Giant plant response rating (0 to 100 scale) [10]: 0; Ryegrass, Italian plant response rating [11]: 30; Ryegrass, Italian plant response rating (0 to 100 scale) [11]: 60; Pigweed plant response rating [12]: 0; Pigweed plant response rating (0 to 100 scale) [12]: 10; Barnyardgrass plant response rating [13]: 0; Barnyardgrass plant response rating (0 to 100 scale) [13]: 0; Ragweed plant response rating [14]: 10; Ragweed plant response rating (0 to 100 scale) [14]: 20; Kochia plant response rating (kochia (Kochia scoparia) [15]): 0; Kochia plant response rating (0 to 100 scale) (kochia (Kochia scoparia) [15]): 0; Plant response rating, Sedge, Umbrella (0 to 100 scale, 0 is no effect, 100 is complete control) [16]: 0; Plant response rating, Barnyardgrass (0 to 100 scale, 0 is no effect, 100 is complete control) [17]: 0; Plant response rating, Rice (0 to 100 scale, 0 is no effect, 100 is complete control) (rice (Oryza sativa)): 0; Plant response rating, Ducksalad (0 to 100 scale, 0 is no effect, 100 is complete control) [18]: 0
